According to ChEMBL document CHEMBL3272224, “Synthesis and hypotensive activity of N-alkyl-N"-cyano-N'-pyridylguanidines” (J Med Chem, 1978):

Columns and labels:
[1] = Toxicity in po dosed mouse assessed as mortality after 7 days; conditions: in vivo
[2] = tested on: Rattus norvegicus; experiment: Hypotensive activity in po dosed spontaneously hypertensive Wistar-Okamoto rat assessed as dose required to cause 30 mmHg fall of blood pressure administered for 5 days; type: functional; conditions: 120 h, read-out: MED

Row | SMILES | LD50 at 168 h [1] [mg/kg] | minimal effective dose [2] [mg/kg]
1 | CC(C)CC(C)/N=C(\NC#N)Nc1ccncc1 (centres undefined) | 1000 | 35
2 | CC(C)(N/C(=N\C#N)Nc1ccncc1)c1ccccc1 | > 1000 | > 50
3 | CCn1nc(C)cc1N/C(=N/C#N)NC(C)(C)C | > 1000 | 10
4 | CC(C)(C)C(C)(C)/N=C(\NC#N)Nc1ccncc1 | > 1000 | 20
5 | CC(N/C(=N\C#N)NCc1ccncc1)C(C)(C)C (centres undefined) | > 1000 | 20
6 | CCCCCCC/N=C(\NC#N)Nc1cccnc1 | > 1000 | > 50
7 | CCC(CC)(CC)/N=C(\NC#N)Nc1cccnc1 | > 1000 | 1
8 | C=C(C)C/N=C(\NC#N)Nc1cccnc1 | 1000 | 20
9 | N#CN/C(=N\C1CCCCC1)Nc1ccncc1 | 600 | 20
10 | Cc1noc(C)c1N/C(=N/C#N)NC(C)C(C)(C)C (centres undefined) | > 1000 | 20
11 | CC(C)CC/N=C(\NC#N)Nc1cccnc1 | > 1000 | 20
12 | CC(/N=C(/NC#N)Nc1cccnc1)C(C)(C)C (centres undefined) | 1000 | 1
13 | CCC(C)(C)N/C(=N\C#N)Nc1cc(-c2ccc(Cl)cc2)nn1C | > 1000 | 50
14 | CCC(C)(C)N/C(=N\C=O)Nc1cccnc1 | 600 | > 20
15 | CCC(C)/N=C(\NC#N)Nc1cccnc1 (centres undefined) | > 1000 | 20
16 | Cc1cccc(C)c1/N=C(\NC#N)Nc1cccnc1 | > 1000 | 50
17 | Cn1nc(-c2ccc(Cl)cc2)cc1N/C(=N/C#N)NC(C)(C)C | > 1000 | > 50
18 | CC(C)C/N=C(\NC#N)Nc1cccnc1 | > 1000 | 20
19 | CCCC(C)(C)/N=C(\NC#N)Nc1cccnc1 | > 1000 | 1
20 | CCC/N=C(\NC#N)Nc1cccnc1 | > 1000 | 20
21 | CCC(C)(C)N/C(=N\S(=O)(=O)c1ccc(C)cc1)Nc1cccnc1 | > 1000 | > 50
22 | CCC(C)(C)N/C(=N\C#N)Nc1ccc(OC)cc1 | > 1000 | 50
23 | CCC(/N=C(\NC#N)Nc1ccncc1)C(C)C (centres undefined) | 600 | 5
24 | CCC(C)(C)N/C(=N\C#N)NCCCN(C)C | > 1000 | 25

Row | SMILES | LD50 at 168 h [1] [mg/kg] | minimal effective dose [2] [mg/kg]
25 | Cc1noc(C)c1N/C(=N/C#N)NC(C)(C)C | > 1000 | 10
26 | N#CN/C(=N\c1ccccc1)Nc1cccnc1 | > 1000 | 5
27 | CN(C)c1ccc(N/C(=N/C#N)NC(C)(C)C)cc1 | > 1000 | > 50
28 | CC(C)C(C)(C)/N=C(\NC#N)Nc1ccncc1 | 1000 | 20
29 | CCC(CC)/N=C(\NC#N)Nc1ccncc1 | 200 | 2.5
30 | CCN(CC)CC/N=C(\NC#N)Nc1cccnc1 | 250 | > 8
31 | CCC(C)(C)N/C(=N\C#N)Nc1cc(C)nc2ccccc12 | > 1000 | 10
32 | CCC(C)(C)N/C(=N\C#N)Nc1ccccc1 | > 1000 | 50
33 | CCC(C)(C)N/C(=N\C#N)NCc1ccncc1.O | > 1000 | 20
34 | Cc1cc(C)nc(N/C(=N/C(C)(C)C)NC#N)c1 | > 1000 | > 50
35 | Cc1cc(C)c(/N=C(\NC#N)NC(C)(C)C)c(C)n1 | > 1000 | > 50
36 | CC(NC(=NC#N)Nc1ccccc1)C(C)(C)C (centres undefined) | > 1000 | > 50
37 | CCOCC/N=C(\NC#N)Nc1cccnc1 | 600 | > 20
38 | CC(C)(C)N/C(=N\C#N)Nc1ccc(O)cc1 | > 1000 | > 50
39 | N#CN/C(=N\C1CCCCCCC1)Nc1ccncc1 | 600 | > 20
40 | N#CN/C(=N\Cc1ccccc1)Nc1cccnc1 | > 1000 | 20
41 | CCOc1ccccc1N/C(=N/C#N)NC(C)(C)CC | > 1000 | 20
42 | CC(C)(C)CC(C)(C)/N=C(\NC#N)Nc1ccncc1 | > 1000 | 50
43 | CC(C)CCCC(C)N/C(=N\C#N)Nc1ccncc1 (centres undefined) | > 1000 | 50
44 | COc1ccc(/N=C(\NC#N)NC(C)(C)C)c(OC)n1 | > 1000 | > 50
45 | N#CN/C(=N\CCc1ccccc1)Nc1cccnc1 | > 1000 | 50
46 | CC(C)(C)/N=C(\NC#N)Nc1ccncc1 | > 1000 | 2.5
47 | N#CN/C(=N\CCc1ccccc1)Nc1ccncc1 | > 1000 | 20
